Source: ChEMBL document CHEMBL1201862, “PubChem BioAssay data set” (2004)
One block for each compound: values may come before it. The source made the active and inactive calls.

Assays:
[1] = target: Epstein-Barr nuclear antigen 1 (Epstein-Barr virus (strain B95-8) (HHV-4) (Human herpesvirus 4), UniProt P03211); assay: EBNA-1 inhibitors, dose response, biochemical, fluorescence polarization, 1536-well (AID 2381); design: species or system human gammaherpesvirus 4;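 further: fluorescence polarization of a Cy5 DNA probe bound by EBNA-1 protein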
[2] = target: Lytic switch protein BZLF1 (Epstein-Barr virus (strain B95-8) (HHV-4) (Human herpesvirus 4), UniProt P03206); assay: EBV ZTA inhibitors, dose response, counter-screen for EBNA-1 inhibitor project, biochemical, fluorescence polarization, Epstein-Barr virus, 1536-well (AID 2377); design: species or system human gammaherpesvirus 4;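 further: fluorescence polarization of Cy5-labelled ZRE DNA probe bound by purified Zta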
[3] = target: T1, Induced myeloid leukemia cell differentiation protein Mcl-1 (Homo sapiens, UniProt Q07820); assay: MCL1-BIM BH3 interaction inhibitors, dose response, biochemical, fluorescence polarization, BIM-BH3 peptide, 1536-well (AID 2217)
[4] = target: T2, Zinc finger protein mex-5 (Caenorhabditis elegans, UniProt Q9XUB2); assay: MEX-5/TCR-2 RNA interaction inhibitors, dose response, biochemical, C. elegans, fluorescence polarization (AID 1960)
T2 sequence (Q9XUB2 whole entry): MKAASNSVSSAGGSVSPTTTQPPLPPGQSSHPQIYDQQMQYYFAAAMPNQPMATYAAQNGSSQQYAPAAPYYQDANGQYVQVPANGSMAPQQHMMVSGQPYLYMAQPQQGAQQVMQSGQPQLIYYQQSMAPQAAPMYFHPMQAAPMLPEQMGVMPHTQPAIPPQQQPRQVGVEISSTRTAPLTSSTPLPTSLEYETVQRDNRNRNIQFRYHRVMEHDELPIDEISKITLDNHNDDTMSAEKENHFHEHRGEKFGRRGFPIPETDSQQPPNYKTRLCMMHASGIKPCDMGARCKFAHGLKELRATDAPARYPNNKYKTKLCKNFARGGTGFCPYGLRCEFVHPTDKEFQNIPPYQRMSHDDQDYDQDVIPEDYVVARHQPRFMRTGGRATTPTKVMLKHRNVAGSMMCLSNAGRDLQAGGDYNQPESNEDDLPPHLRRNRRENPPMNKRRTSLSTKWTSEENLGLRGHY

[5] = target: Genome polyprotein (dengue virus type 2, UniProt P29990); assay: Dengue-2 NS5 methyltransferase inhibitors, primary screen, biochemical, confirmation dose response (AID 588689); assay type: functional
[6] = target: Bcl-2-like protein 1 (Homo sapiens, UniProt Q07817); assay: BCL-XL inhibitors, dose response, selectivity assay for MCL1 inhibitor project, biochemical, fluorescence polarization, 1536-well (AID 2218)
[7] = target: T3, RNA-binding protein pos-1 (Caenorhabditis elegans, UniProt G5EF15); assay: inhibitors of POS-1/mex-3 RNA binding, dose response, biochemical, fluorescence polarization (AID 1964);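 further: purified POS-1 fused to maltose binding protein made in E. coli; potency of compounds blocking POS-1 binding to fluorescent RNA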
T3 sequence (G5EF15 whole entry): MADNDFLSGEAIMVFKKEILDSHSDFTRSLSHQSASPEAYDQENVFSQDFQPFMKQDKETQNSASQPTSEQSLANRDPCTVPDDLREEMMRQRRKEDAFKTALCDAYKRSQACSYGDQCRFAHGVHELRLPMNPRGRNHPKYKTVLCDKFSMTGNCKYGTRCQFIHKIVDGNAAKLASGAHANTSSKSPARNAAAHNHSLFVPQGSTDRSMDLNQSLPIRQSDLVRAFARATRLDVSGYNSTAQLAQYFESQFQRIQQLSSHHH

[8] = cells
[9] = inhibitors of intracellular T. cruzi replication, confirmation, NIH3T3 host cells, beta-gal luminescence (AID 2044); assay type: functional, cell-based;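 further: intracellular parasites grown in NIH/3T3 mouse fibroblasts as host cells; luminescent beta-galactosidase reporter signal from transgenic T. cruzi replicating inside host cells; inhibitors lower the luminescence signal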
[10] = target: T4, Microphthalmia-associated transcription factor (Homo sapiens, UniProt O75030); assay: TRPM1 promoter luciferase signal decrease, dose response, MITF inhibitor project, cell-based, SK-MEL-5, cherry-picked, set 3 (AID 493073); assay type: functional
T4 sequence (O75030 whole entry): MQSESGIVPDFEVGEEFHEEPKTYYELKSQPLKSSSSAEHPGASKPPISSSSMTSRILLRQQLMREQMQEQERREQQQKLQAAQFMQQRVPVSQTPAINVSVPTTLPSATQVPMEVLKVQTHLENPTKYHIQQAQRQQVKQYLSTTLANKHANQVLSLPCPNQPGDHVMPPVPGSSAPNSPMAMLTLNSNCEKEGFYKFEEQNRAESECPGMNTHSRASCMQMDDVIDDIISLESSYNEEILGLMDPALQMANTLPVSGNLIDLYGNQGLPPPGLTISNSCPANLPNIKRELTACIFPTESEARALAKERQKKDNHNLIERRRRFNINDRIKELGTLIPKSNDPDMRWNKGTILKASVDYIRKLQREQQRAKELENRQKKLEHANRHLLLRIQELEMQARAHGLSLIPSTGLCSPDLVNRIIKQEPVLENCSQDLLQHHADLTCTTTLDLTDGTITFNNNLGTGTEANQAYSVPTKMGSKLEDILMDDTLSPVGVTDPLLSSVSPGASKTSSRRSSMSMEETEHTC

[11] = cytotoxicity toward NIH3T3 fibroblasts, dose response, counter-screen, cell-based, ATP luminescence, mouse fibroblasts (AID 2010); assay type: functional;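 further: cells exposed to compound for about 90 hours before reading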
[12] = target: Cytochrome P450 2D6 (Homo sapiens, UniProt P10635);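 further: CYP2D6 member of a cytochrome P450 panel assay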
[13] = target: T1, Induced myeloid leukemia cell differentiation protein Mcl-1; assay type: functional
[14] = target: T5, Cytochrome P450 1A2 (Homo sapiens, UniProt P05177);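 further: PubChem cytochrome P450 panel assay, CYP1A2 panel member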
T5 sequence (P05177 whole entry): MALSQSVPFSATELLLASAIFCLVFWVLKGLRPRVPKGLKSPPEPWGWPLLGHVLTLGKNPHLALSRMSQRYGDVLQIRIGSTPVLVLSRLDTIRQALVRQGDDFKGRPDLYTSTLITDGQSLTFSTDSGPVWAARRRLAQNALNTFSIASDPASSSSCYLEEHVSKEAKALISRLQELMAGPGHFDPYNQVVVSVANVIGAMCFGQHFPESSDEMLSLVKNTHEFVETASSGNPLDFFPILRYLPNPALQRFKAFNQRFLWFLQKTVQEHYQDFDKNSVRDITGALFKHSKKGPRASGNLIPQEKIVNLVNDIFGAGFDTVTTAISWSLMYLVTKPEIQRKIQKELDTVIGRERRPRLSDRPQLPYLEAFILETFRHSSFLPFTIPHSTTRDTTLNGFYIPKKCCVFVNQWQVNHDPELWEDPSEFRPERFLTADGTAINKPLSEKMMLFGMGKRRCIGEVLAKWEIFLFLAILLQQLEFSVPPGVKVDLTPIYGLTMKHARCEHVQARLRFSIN

[15] = target: Cytochrome P450 3A4 (Homo sapiens, UniProt P08684);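 further: CYP3A4 tested as one member of a cytochrome P450 panel screen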
[16] = target: Cytochrome P450 2C19 (Homo sapiens, UniProt P33261); assay: Cytochrome panel assay with activity outcomes. Panel member name: p450-cyp2c19 Compounds with AC50 equal or less than 10 uM are considered active; assay type: functional; settings: read-out: AC50
[17] = test system: BJ; assay: cytotoxicity toward BJ-TERT-LT-ST fibroblasts, dose response, cell-based, RAS-independent, luminescence (AID 1935); assay type: functional; settings: Homo sapiens;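 further: BJ fibroblasts immortalized with TERT plus LT and ST oncogenes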
[18] = test system: BJ; assay: cytotoxicity toward BJ-TERT fibroblasts, dose response, cell-based, RAS-independent, luminescence (AID 1933); assay type: functional; settings: Homo sapiens
[19] = cytotoxicity in HEK-293T cells, dose response, cytotoxicity control for TCR NF-kB inhibitor project, luminescence, T-cell screen hits (AID 489026); assay type: functional, cell-based;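 further: cells exposed to compound about 14 hours before the viability readout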
[20] = cytotoxicity toward DRD oncogenic fibroblasts, dose response, cell-based, non-viral oncogenic, luminescence (AID 1934); assay type: functional; settings: Homo sapiens
[21] = NIH-3T3 fibroblast cytotoxicity, dose response, cytotoxicity control, cell-based, fluorescence, Alamar Blue, secondary assay (AID 2327); assay type: functional;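 further: NIH-3T3 mouse fibroblasts cultured with fluconazole at 8 µg/mL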
[22] = test system: BJ; assay: cells; assay type: functional, cell-based; settings: Homo sapiens
[23] = C. albicans growth with fluconazole, confirmation, fluorescence, retest (AID 2467); assay type: functional, cell-based
[24] = target: T6, Neuropeptide Y receptor type 2 (Homo sapiens, UniProt P49146); assay type: functional, cell-based;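 further: HEK293 cells expressing the receptor and a CNG channel; stimulus was NPY near EC95 followed by isoproterenol to raise cAMP; antagonist potency measured as restoring cAMP signal that NPY suppresses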
T6 sequence (P49146 whole entry): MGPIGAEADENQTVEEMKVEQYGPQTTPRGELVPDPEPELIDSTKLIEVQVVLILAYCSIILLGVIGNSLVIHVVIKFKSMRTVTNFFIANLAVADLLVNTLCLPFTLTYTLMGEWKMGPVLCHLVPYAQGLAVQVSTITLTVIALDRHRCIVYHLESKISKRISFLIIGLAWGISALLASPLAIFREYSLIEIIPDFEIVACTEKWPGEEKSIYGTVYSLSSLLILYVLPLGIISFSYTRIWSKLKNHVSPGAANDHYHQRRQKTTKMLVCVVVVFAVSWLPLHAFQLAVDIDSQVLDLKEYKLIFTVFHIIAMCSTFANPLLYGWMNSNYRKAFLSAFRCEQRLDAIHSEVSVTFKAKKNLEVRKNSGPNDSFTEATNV

[25] = target: Cytochrome P450 2C9 (Homo sapiens, UniProt P11712)
[26] = target: T7, Neuropeptide Y receptor type 1 (Homo sapiens, UniProt P25929); assay type: functional;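 further: HEK293 cells with a CNG channel challenged with NPY then isoproterenol; potency as antagonist that reverses NPY suppression of cAMP signal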
T7 sequence (P25929 whole entry): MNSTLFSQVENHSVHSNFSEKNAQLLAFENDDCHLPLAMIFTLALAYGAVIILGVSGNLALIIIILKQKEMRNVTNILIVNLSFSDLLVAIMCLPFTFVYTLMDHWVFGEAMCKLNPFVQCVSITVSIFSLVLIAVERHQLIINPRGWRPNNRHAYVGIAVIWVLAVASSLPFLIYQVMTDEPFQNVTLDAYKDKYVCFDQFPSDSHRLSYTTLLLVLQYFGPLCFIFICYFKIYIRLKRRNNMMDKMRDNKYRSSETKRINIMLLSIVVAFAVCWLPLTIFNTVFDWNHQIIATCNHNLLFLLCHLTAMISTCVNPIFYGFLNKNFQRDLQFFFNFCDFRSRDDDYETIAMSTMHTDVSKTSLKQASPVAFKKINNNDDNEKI

T1 sequence (Q07820 whole entry): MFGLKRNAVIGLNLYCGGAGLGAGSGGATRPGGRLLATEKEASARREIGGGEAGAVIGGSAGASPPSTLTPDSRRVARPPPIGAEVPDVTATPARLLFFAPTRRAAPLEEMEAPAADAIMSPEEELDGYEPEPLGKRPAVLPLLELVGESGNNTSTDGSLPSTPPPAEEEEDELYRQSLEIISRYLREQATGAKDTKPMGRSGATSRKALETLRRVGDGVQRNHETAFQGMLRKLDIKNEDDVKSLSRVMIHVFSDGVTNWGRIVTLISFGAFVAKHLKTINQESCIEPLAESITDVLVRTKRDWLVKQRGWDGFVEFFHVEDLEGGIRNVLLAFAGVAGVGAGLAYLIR
Sequence of Bcl-2-like protein 1 (Q07817 whole entry, the tested form may be a part): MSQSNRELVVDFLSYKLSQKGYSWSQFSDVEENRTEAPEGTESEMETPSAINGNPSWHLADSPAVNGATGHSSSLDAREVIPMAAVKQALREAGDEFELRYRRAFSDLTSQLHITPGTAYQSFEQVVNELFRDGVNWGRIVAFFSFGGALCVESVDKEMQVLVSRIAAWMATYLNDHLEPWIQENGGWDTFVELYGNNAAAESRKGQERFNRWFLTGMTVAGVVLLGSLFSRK
Sequence of Cytochrome P450 2C9 (P11712 whole entry): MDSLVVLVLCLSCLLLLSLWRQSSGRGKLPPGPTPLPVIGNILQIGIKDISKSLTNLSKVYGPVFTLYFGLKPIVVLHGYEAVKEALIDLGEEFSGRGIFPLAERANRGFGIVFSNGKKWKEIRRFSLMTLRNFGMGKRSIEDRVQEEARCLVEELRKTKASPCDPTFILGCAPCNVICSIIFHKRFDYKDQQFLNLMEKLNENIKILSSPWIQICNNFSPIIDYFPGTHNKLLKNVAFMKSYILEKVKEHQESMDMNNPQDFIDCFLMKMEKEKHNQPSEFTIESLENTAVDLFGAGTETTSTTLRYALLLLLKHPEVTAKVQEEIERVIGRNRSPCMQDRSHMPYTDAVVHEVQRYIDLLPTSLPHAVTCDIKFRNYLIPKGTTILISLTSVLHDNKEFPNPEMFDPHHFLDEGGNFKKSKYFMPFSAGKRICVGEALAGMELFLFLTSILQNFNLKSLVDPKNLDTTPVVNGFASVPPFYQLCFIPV
Sequence of Genome polyprotein (P29990 2492-3391 limits assumed): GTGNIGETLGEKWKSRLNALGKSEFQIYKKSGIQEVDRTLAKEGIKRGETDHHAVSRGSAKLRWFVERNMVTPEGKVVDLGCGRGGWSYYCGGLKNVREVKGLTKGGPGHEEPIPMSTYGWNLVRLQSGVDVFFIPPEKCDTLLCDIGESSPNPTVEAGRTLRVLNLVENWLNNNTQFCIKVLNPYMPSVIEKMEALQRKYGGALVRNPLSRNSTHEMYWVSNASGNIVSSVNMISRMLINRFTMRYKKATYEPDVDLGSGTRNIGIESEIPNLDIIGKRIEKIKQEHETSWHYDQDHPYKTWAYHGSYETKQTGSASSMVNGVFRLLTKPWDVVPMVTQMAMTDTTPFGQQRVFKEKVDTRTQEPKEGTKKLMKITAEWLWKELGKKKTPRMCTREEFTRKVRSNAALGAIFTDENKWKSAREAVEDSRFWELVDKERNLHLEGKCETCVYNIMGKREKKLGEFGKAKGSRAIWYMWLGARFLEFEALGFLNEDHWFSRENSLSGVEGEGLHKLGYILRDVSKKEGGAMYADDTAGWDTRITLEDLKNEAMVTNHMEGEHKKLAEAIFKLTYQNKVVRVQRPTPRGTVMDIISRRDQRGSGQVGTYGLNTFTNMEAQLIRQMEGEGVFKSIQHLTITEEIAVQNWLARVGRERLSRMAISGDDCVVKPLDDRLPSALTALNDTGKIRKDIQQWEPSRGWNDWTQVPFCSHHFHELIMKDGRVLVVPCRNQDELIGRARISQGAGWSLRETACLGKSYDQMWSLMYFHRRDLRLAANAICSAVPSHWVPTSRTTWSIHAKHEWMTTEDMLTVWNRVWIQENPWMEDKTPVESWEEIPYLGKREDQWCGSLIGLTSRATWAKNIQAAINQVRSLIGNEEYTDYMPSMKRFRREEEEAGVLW
Sequence of Cytochrome P450 2C19 (P33261 whole entry): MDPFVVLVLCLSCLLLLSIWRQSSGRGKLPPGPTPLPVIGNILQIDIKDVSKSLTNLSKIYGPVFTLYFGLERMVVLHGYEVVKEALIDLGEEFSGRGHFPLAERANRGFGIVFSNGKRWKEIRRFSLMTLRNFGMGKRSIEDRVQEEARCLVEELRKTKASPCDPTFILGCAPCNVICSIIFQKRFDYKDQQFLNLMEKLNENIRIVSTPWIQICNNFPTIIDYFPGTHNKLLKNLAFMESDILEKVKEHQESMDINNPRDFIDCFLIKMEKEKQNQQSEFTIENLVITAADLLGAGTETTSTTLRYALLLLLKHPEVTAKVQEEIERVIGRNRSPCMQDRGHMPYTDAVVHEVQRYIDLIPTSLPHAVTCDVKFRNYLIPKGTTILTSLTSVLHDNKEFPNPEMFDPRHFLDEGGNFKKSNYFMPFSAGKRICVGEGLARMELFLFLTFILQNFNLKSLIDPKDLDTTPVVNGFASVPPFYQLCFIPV
Sequence of Cytochrome P450 2D6 (P10635 whole entry): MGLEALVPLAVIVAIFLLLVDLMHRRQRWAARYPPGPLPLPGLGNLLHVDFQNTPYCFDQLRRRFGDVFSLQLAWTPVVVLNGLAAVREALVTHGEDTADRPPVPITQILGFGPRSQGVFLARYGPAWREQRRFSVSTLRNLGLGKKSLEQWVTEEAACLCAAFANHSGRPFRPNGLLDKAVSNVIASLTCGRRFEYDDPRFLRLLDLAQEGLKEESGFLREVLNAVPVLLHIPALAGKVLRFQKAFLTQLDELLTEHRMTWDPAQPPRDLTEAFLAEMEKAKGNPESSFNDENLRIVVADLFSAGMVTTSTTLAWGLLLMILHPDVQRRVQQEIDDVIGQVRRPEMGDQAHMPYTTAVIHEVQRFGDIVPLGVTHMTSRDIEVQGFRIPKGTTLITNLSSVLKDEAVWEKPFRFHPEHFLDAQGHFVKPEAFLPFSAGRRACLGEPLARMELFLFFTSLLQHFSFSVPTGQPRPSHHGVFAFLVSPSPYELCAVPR
Sequence of Lytic switch protein BZLF1 (P03206 whole entry): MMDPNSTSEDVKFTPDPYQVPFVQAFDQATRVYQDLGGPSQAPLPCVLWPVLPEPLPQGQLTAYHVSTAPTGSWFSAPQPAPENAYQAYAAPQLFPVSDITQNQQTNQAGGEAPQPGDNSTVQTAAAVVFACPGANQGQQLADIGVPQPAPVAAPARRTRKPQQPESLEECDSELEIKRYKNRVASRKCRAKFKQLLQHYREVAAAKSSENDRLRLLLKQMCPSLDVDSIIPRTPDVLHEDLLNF
Sequence of Cytochrome P450 3A4 (P08684 whole entry): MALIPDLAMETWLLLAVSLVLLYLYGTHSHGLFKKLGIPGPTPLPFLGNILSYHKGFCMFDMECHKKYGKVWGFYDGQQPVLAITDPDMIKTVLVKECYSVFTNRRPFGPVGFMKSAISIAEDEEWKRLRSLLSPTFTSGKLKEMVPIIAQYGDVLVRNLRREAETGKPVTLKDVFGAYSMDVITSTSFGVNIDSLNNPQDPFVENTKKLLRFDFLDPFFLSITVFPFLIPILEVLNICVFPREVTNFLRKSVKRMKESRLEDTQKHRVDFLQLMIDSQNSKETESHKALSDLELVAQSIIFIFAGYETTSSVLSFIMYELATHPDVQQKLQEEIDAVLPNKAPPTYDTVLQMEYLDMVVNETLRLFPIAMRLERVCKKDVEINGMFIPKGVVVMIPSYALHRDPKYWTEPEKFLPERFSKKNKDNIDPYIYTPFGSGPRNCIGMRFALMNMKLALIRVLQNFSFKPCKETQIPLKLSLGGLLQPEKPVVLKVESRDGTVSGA
Sequence of Epstein-Barr nuclear antigen 1 (P03211 whole entry): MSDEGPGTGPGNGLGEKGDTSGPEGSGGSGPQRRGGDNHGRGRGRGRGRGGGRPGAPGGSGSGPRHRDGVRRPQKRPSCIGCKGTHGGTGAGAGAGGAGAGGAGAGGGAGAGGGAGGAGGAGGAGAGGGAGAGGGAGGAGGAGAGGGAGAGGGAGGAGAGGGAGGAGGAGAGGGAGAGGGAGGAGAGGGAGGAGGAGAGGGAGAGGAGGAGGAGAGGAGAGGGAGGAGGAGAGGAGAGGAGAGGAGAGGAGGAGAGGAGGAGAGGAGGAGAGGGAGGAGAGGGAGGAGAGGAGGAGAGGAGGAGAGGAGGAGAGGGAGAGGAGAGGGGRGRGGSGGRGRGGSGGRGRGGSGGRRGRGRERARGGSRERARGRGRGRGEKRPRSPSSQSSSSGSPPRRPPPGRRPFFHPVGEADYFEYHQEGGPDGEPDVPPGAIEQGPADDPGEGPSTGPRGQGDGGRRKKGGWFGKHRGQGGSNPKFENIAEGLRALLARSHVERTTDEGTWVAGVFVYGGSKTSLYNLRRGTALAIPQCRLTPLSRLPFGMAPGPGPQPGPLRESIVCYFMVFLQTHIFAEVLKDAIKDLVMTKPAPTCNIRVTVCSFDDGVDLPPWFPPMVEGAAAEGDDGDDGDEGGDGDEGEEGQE

SMILES: Cc1nc2ccccc2c(=O)n1/N=C/c1ccc(O)c(O)c1O
IC50 [3]: 2.07 µM (active) | EC50 [4]: 0.193 µM (active) | IC50 [5]: > 100 µM (active) | IC50 [6]: > 109 µM (not active) | EC50 [7]: 12.9 µM (active)

SMILES: C/C(=N/NC(=O)C(O)(c1ccccc1)c1ccccc1)c1ccc([N+](=O)[O-])o1
EC50 [8]: 0.222 µM (active) | EC50 [9]: < 0.1 µM (active) | AC50 [10]: 9.84 µM (active) | EC50 [11]: > 60 µM (not active)

SMILES: O=C(N/N=C/c1ccncc1)c1cc([N+](=O)[O-])cc([N+](=O)[O-])c1O
AC50 [12]: 14.1 µM (inconclusive) | IC50 [3]: > 36.3 µM (not active) | IC50 [13]: 3.25 µM (active) | AC50 [14]: 5.01 µM (inconclusive) | IC50 [6]: > 109 µM (not active) | AC50 [15]: 1 µM (inconclusive) | AC50 [16]: 2.51 µM (inconclusive)

SMILES: Cc1ccc2c(c1)sc(-c1ccc(N(C)C)cc1)[n+]2C
EC50 [8]: < 0.004 µM (active) | EC50 [17]: 20.9 µM (inconclusive) | EC50 [9]: < 0.1 µM (active) | EC50 [18]: 3.83 µM (active) | EC50 [11]: > 60 µM (not active) | IC50 [19]: > 80 µM (inactive) | EC50 [20]: 14.5 µM (active) | EC50 [21]: > 160 µM (inactive) | EC50 [22]: 0.609 µM (active) | EC50 [23]: 0.039 µM (active)

Other lines, results leading:

IC50 [1]: 4.71 µM (active) | IC50 [2]: > 111 µM (not active)
SMILES: COc1ccc2oc(C(=O)OCC(=O)Nc3ccc(NC(C)=O)cc3)c(C)c2c1

IC50 [24]: 8.09 µM (active) | AC50 [25]: 7.94 µM (inconclusive) | IC50 [26]: 6.96 µM (active)
SMILES: Clc1ccccc1CSc1nnc(/C=C/c2ccccc2)o1

IC50 [24]: 17.8 µM (not active) | IC50 [26]: 11.1 µM (not active)
SMILES: CCSc1nc2ccc(OC)cc2cc1C#N
